Read-outs that look alike come from different tables or passages of the source.

Usually EC50 stands for the midpoint of the concentration-response curve. As usually defined, the IC50 is the point on the concentration scale where inhibition reaches its midpoint.

Data set [1] has as its system MC3T3-E1 subclone 4 cells. The class given is cell-based, murine.
Data set [2] has as its system ovariectomy-induced bone loss in mice. Nature of the data set: Cortical bone strength, 3-point bending at the midshaft femur, ovariectomized mice. The class given is in vivo. As to the method: At 16 weeks of age, ALZET osmotic pumps (model number 2006, Durect Corp., Cupertino, CA) filled with the below saline or peptide were implanted subcutaneously between the two scapula under general anesthesia in 32 mice. Successful filling of pumps was verified by weighting the pump before and after filling. At 20 weeks of age, ALZET osmotic pumps were replaced by similar pumps to ensure delivery for four new weeks. […] This dose and regimen of zoledronic acid was equivalent to the 5 mg infusion approved for the treatment of post-menopausal osteoporosis in humans. At necropsy, femurs and second lumbar vertebras (L2) were cleaned of soft tissue and immediately frozen in a saline-soaked gauze at −20° C. Three-point-bending experiments were performed on femurs after thawing bones at 4° C. overnight. Femurs were loaded to failure in 3-point bending at 2 mm/min using a servohydraulic materials testing system (Instron 5942, Instron, Elancourt, France). The lower span length was of 10 mm. Femurs were oriented so the anterior quadrant was facing down and subjected to tensile loads. Load and displacement of the upper crosshead, which were digitally recorded at a sampling rate of 100 Hz, were measured using a 500 N load cell (Instron). Stiffness, ultimate load, yield load, post-yield displacement (PYD), and work-to-fracture were calculated from the load-displacement curves. PYD was defined as the displacement at failure minus the displacement at yield.

The subject of a further data set is MC3T3-E1 cells. The data set is classed as cell-based, murine. The protocol:
Increased plasma membrane permeability that occurs during cell death can be visualised using trypan blue, a dye that is excluded from living cells and is incorporated into the cells when they are undergoing death (Bellido and Plotkin (2008) Methods Mol. Biol. 455:51-75).
After 24 h, the cell culture supernatant containing the floating cells was collected and put in previously labelled eppendorf tubes. Each well was washed in PBS before trypsin was added to detach adherent cells. The mixture containing detached adherent cells was collected and pooled in the eppendorf containing the cell culture supernatant. Cells were spun at 1,500 rotation per minute (rpm) for 10 minutes, the supernatant was removed carefully and cells were incubated with trypan blue 0.04% and transferred into a haemocytometer. Living (clear) and dead (blue) cells were counted under light microscope examination and the percentage of dead cells was determined for each condition as follow: % of dead cells=100×(Number of dead cells)/(Number of dead cells+Number of living cells)

The next data set has as its target T1, human GLP-2r (Homo sapiens, UniProt O95838).
T1 construct: host or cells: HEK-293
T1 sequence (O95838 1-553): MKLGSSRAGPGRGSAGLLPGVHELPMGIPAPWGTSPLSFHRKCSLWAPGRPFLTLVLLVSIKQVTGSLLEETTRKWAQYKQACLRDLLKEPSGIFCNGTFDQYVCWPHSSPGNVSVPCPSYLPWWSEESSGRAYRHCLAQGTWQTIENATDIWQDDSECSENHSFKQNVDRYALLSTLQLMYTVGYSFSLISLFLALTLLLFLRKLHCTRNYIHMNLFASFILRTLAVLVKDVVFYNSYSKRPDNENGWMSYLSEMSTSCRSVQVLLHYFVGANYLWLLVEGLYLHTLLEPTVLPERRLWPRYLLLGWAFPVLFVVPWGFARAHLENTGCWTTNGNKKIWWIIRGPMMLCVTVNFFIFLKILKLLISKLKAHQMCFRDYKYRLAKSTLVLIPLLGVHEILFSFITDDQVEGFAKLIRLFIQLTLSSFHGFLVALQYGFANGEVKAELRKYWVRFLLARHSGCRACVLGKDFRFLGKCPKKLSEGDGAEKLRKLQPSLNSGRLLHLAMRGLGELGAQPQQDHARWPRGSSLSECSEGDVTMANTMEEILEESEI
In words: Cyclic AMP assay (FRET, H74 probe), HEK-293 transfected with human GLP-2r. Conditions: HEK 293 transfected only with human GLP-2r, 10^-9 M, 30 min (FIG. 17). The class given is cell-based. The protocol: Human HEK-293 cells were plated at a density of 2×10^5 cells/cm^2 in 4 well microslides (ibidi GmbH, Martinsried, Germany). […] Jalink (Netherland Cancer Institute, Amsterdam, Netherland). […] The image acquisition was performed with a 63 X, 1.4 N.A. oil immersion objective and a Hybrid® detector (Leica) and images were collected after 30 minutes. Donor excitation was made with a 458 nm Ar laser, donor emission was collected between 460-505 nm and acceptor emission between 520-600 nm by setting the SP8 spectrometer accordingly. FRET was expressed as the ratio between donor and acceptor signals.

Another data set has as its system Murine Raw 264.7 cells. In words: Raw264.7 cell-mediated osteoclast formation in vitro (Example 2). The data set is classed as cell-based. Conditions: 10 ng/ml soluble murine RANKL, 110 h, TRAcP staining. The source says:
TRAcP positive cells, with more than three nuclei, were identified as osteoclasts.

[3] abbreviates: OVX mice, 100 nmoles/kg/day, 8 weeks, vs vehicle.

The compound `CC[C@H](C)[C@H](NC(=O)[C@H](CO)NC(=O)[C@H](Cc1ccccc1)NC(=O)[C@H](CC(=O)O)NC(=O)[C@H](CO)NC(=O)CNC(=O)[C@H](Cc1ccccc1)NC(=O)[C@H](CO)NC(=O)CNC(=O)[C@H](CCC(=O)O)NC(=O)CNC(=O)[C@@H](N)Cc1c[nH]cn1)C(=O)N[C@@H](C)C(=O)N[C@@H](CC(C)C)C(=O)N[C@@H](CC(=O)O)C(=O)N[C@@H](CCCCN)C(=O)N[C@@H](CC(C)C)C(=O)N[C@@H](C)C(=O)N[C@@H](C)C(=O)N[C@@H](CCCNC(=N)N)C(=O)N[C@@H](CC(=O)O)C(=O)N[C@@H](Cc1ccccc1)C(=O)N[C@H](C(=O)N[C@@H](CC(N)=O)C(=O)N[C@@H](Cc1c[nH]c2ccccc12)C(=O)N[C@@H](CC(C)C)C(=O)N[C@@H](CC(C)C)C(=O)N[C@@H](CCC(N)=O)C(=O)N[C@H](C(=O)N[C@@H](CCCCN)C(N)=O)[C@@H](C)O)C(C)C` [GL-0007] returned an EC50 in data set [1] of 0.0259 ± 0.0145 nM. Further, the “Emax for dose-effect curves on collagen maturity” value in data set [1] (MC3T3-E1, day 14) came to 232.3%. For the same compound, in data set [2] (setting [3]), the augmentation in work-to-fracture came out at 33%, the “increase in post-yield displacement” value is 62% and the “increase in ultimate displacement” value turned out to be 33%.

With `CC[C@H](C)[C@H](NC(=O)[C@H](CO)NC(=O)[C@H](CCSC)NC(=O)[C@H](CC(=O)O)NC(=O)[C@H](CO)NC(=O)CNC(=O)[C@H](Cc1ccccc1)NC(=O)[C@H](CO)NC(=O)CNC(=O)[C@H](CCC(=O)O)NC(=O)CNC(=O)[C@@H](N)Cc1c[nH]cn1)C(=O)N[C@@H](C)C(=O)N[C@@H](CC(C)C)C(=O)N[C@@H](CC(=O)O)C(=O)N[C@@H](CCCCN)C(=O)N[C@@H](CC(C)C)C(=O)N[C@@H](C)C(=O)N[C@@H](C)C(=O)N[C@@H](CCCNC(=N)N)C(=O)N[C@@H](CC(=O)O)C(=O)N[C@@H](Cc1ccccc1)C(=O)N[C@H](C(=O)N[C@@H](CC(N)=O)C(=O)N[C@@H](Cc1c[nH]c2ccccc12)C(=O)N[C@@H](CC(C)C)C(=O)N[C@@H](CC(C)C)C(=O)N[C@@H](CCC(N)=O)C(=O)N[C@H](C(=O)N[C@@H](CCCCN)C(=O)N[C@H](C(=O)N[C@H](C(=O)N[C@@H](CC(=O)O)C(=O)O)[C@@H](C)O)[C@@H](C)CC)[C@@H](C)O)C(C)C` [GL-0001], in the data set on MC3T3-E1 cells, the osteoblast cell death entry was “does not induce cell death”. Also, on human GLP-2r, the “intracellular levels of cAMP” value is listed as “increased intracellular levels of cAMP”. In addition, the “Emax for dose-effect curves on collagen maturity” value in data set [1] (MC3T3-E1, day 14) turned out to be 207.0%. Besides, in data set [1] (MC3T3-E1, day 14, mean ± SD of 5 individual experiments, read-out: EC50 for dose-effect curves on collagen maturity), the EC50 came to 0.0262 ± 0.0171 nM. In the data set on Murine Raw 264.7 cells, this compound displayed an IC50 of 0.0182 ± 0.0056 nM. In data set [2] (OVX mice, 25 nmoles/kg/day, 8 weeks, vs vehicle), this compound registered an increase in work-to-fracture of 37%. In data set [2] (mouse, in vivo), the “increase in post-yield displacement” value came out at 70% and the “increase in ultimate displacement” value came to 34%.

The values are drawn from patent US12617831B2 (UNIVERSITE D'ANGERS, priority 2019, dated 2026).
